Assay results as given in US20230398119A1, “COMBINATION THERAPY INVOLVING DIARYL MACROCYCLIC COMPOUNDS” (TURNING POINT THERAPEUTICS, INC., priority 2019, published 2023).

Assays:
Calu-6 = assay: NSCLC Cell Viability Assay; type: cell-based; conditions: Homo sapiens; Calu-6, KRAS Q61K; single agent
Experimental: (§1) Cell proliferation was measured using CellTiter-Glo luciferase-based ATP detection assay (Promega) following the manufactures's protocol. IC50 determinations were performed using GraphPad Prism software (GraphPad, Inc., San Diego, CA).

HCC1588 = assay: NSCLC Cell Viability Assay; type: cell-based; conditions: Homo sapiens; HCC1588, KRAS G12D; single agent
Experimental: as §1

LU2512 = assay: NSCLC Cell Viability Assay; type: cell-based; conditions: Homo sapiens; LU2512, KRAS G12C; single agent
Experimental: as §1

NCI-H1373 = assay: NSCLC Cell Viability Assay; type: cell-based; conditions: Homo sapiens; NCI-H1373, KRAS G12C; single agent
Experimental: as §1

NCI-H1792 = assay: NSCLC Cell Viability Assay; type: cell-based; conditions: Homo sapiens; NCI-H1792, KRAS G12C; single agent
Experimental: as §1

NCI-H1944 = assay: NSCLC Cell Viability Assay; type: cell-based; conditions: Homo sapiens; NCI-H1944, KRAS G13D; single agent
Experimental: as §1

NCI-H2122 = assay: NSCLC Cell Viability Assay; type: cell-based; conditions: Homo sapiens; NCI-H2122, KRAS G12C; single agent
Experimental: as §1

NCI-H23 = assay: NSCLC Cell Viability Assay; type: cell-based; conditions: Homo sapiens; NCI-H23, KRAS G12C; single agent
Experimental: as §1

NCI-H441 = assay: NSCLC Cell Viability Assay; type: cell-based; conditions: Homo sapiens; NCI-H441, KRAS G12V; single agent
Experimental: as §1

NCI-H460 = assay: NSCLC Cell Viability Assay; type: cell-based; conditions: Homo sapiens; NCI-H460, KRAS Q61H; single agent
Experimental: as §1

SW1573 = assay: NSCLC Cell Viability Assay; type: cell-based; conditions: Homo sapiens; SW1573, KRAS G12C; single agent
Experimental: as §1

[1] = test system: mutant KRAS NSCLC cell lines; assay: NSCLC Cell Viability Assay (panel statements); type: cell-based, human
Experimental: as §1

[2] = test system: cleaved PARP and cleaved caspase-3 (NCI-H2122); assay: Immunoblotting of apoptosis biomarkers; type: cell-based, human
Experimental: (§2) Cleaved PARP and cleaved caspase-3 were evaluated as biomarkers of apoptosis. Half a million cells per well were seeded in 24 well plate for 24 hrs, and then treated with compounds for 4, 24 or 48 hours. Cells were collected after treatment and lysed in RIPA buffer (50 mM Tris, pH 7.4, 150 mM NaCl, 1% NP-40, 0.5% Deoxycholate, 0.1% SDS) supplemented with 10 mM EDTA, 1×Halt protease and phosphatase inhibitors (Thermo Scientific). Protein lysates (approximately 20 μg) was resolved on 4-12% Bolt Bis-Tris precasted gels with MES running buffer (Life Technologies), transferred to nitrocellulose membranes using Trans-Blot Turbo Transfer System (Bio-Rad) and detected with antibodies targeting PARP, Cleaved caspase-3, tubulin and actin (Cell Signaling Technology). Antibodies were typically incubated overnight at 4° C. with gentle shake, followed by washes and incubation with the appropriate HRP-conjugated secondary antibodies. Membranes were incubated with chemiluminescent substrate for 5 min at room temperature (SuperSignal West Femto, Thermo Scientific). The chemiluminescent images were acquired with a C-DiGit Imaging System (LI-COR Biosciences).

[3] = test system: cleaved PARP and cleaved caspase-3 (NCI-H358); assay: Immunoblotting of apoptosis biomarkers; type: cell-based, human; conditions: NCI-H358 KRAS G12C; trametinib 100 nM, Compound 1 1 μM; combination at 24 and 48 hour
Experimental: as §2

[4] = test system: phosphorylated STAT3, FAK, SRC, AKT, ERK (Calu-6); assay: Immunoblotting for cellular kinase phosphorylation; type: cell-based, human; conditions: Calu-6 KRAS Q61K; for phospho-AKT (pAKT) protein level / phospho-FAK (pFAK) protein level / phospho-SRC (pSRC) protein level / phospho-STAT3 (pSTAT3) protein level: 4, 24 and 48 h; for phospho-FAK (pFAK) protein level / phospho-SRC (pSRC) protein level / phospho-STAT3 (pSTAT3) protein level: trametinib 50 μM
Experimental: as §2, with “Half” for “Cleaved PARP and cleaved caspase-3 were evaluated as biomarkers of apoptosis. Half”, “phosphorylated STAT3, FAK, SRC, AKT, ERK,” for “PARP, Cleaved caspase-3, tubulin and actin”, “Technology), total STAT3, FAK, SRC, AKT, and ERK, (Cell Signaling Technology)” for “Technology).”

[5] = NCI-H2122 KRAS G12C, trametinib 100 nM, Compound 1 1 μM, combination at 24 and 48 hour
[6] = Compound 1 1 μM, trametinib 50 nM

SMILES | IC50 (Calu-6) [nM] | IC50 (HCC1588) [nM] | IC50 (LU2512) [nM] | IC50 (NCI-H1373) [nM] | IC50 (NCI-H1792) [nM] | IC50 (NCI-H1944) [nM] | IC50 (NCI-H2122) [nM] | IC50 (NCI-H23) [nM] | IC50 (NCI-H441) [nM] | IC50 (NCI-H460) [nM] | IC50 (SW1573) [nM] | cleaved PARP [2, 5] | cleaved caspase-3 [2, 5] | cleaved PARP [3] | cleaved caspase-3 [3] | phospho-AKT (pAKT) protein level [4, 6] | phospho-FAK (pFAK) protein level ([4]; Compound 1 1 μM) | phospho-SRC (pSRC) protein level ([4]; Compound 1 1 μM) | phospho-STAT3 (pSTAT3) protein level ([4]; Compound 1 1 μM) | other results
C[C@H]1CNC(=O)c2cnn3ccc(nc23)N[C@H](C)c2cc(F)ccc2O1 [Compound 1, (7S,13R)-11-fluoro-7,13-dimethyl-6,7,13,14-tetrahydro-1,15-ethenopyrazolo[4,3-f][1,4,8,10]benzoxatriazacyclotridecin-4(5H)-one] | 1470 | 820 | 2500 | 4200 | 1320 | 2620 | 1160 | 3420 | 5210 | 1220 | 2590 | small increases | small increases | small increases | small increases | suppresses | suppresses | suppresses | suppresses | IC50 ([1]; Homo sapiens, read-out: IC50 range): 820 to 5000 nM; cleaved PARP ([2]; H2122 KRAS G12C, 24 hour treatment with Compound 1 (1 μM)): significant increase; induction of phosphorylated AKT by 50 nM trametinib ([4]; 1 μM Compound 1): suppressed; trametinib-induced phosphoAKT protein level ([4]; 1 μM Compound 1 compared to dasatinib, defactinib or ruxolitinib): more effectively suppressed
CC(=O)Nc1cccc(-n2c(=O)n(C3CC3)c(=O)c3c(Nc4ccc(I)cc4F)n(C)c(=O)c(C)c32)c1 [Trametinib, N-(3-{3-cyclopropyl-5-[(2-fluoro-4-iodophenyl)amino]-6,8-dimethyl-2,4,7-trioxo-3,4,6,7-tetrahydropyrido[4,3-d]pyrimidin-1(2H)-yl}phenyl)acetamide] | 12 | > 10000 | 2530 | > 10000 | 51 | > 10000 | 10 | 63 | > 10000 | 70 | > 10000 | small increases | small increases | small increases | small increases | did not suppress | did not suppress | did not suppress | did not suppress | inhibition of the cell proliferation ([1]; Calu-1, COR-L23, HCC1588, LCLC-97TM1, LU2512, NCI-H1155, NCI-H1373, NCI-H1573, SK-LU-1, SW1573): weak-to-no detectable inhibition; pERK protein level [4, 6]: potently inhibited
